Data taken from ChEMBL document CHEMBL1201862, “PubChem BioAssay data set” (2004).
Values belong to the compound of their own block, whether it stands above or below them. The source made the active and inactive calls.

Columns and labels:
[1] = target: Nuclear receptor subfamily 5 group A member 2 (Homo sapiens, UniProt O00482); type: functional, cell-based;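 also: HEK293T cells transfected with LRH-1 and a StAR promoter luciferase reporter; potency for inhibitors that lower LRH-1 driven reporter light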
[2] = target: Steroidogenic factor 1 (Homo sapiens, UniProt Q13285); experiment: Counterscreen for inverse agonists of the liver receptor homolog-1 (LRH-1; NR5A2): Luminescence-based cell-based high throughput dose response assay to identify inverse agonists of the Steroidogenic Factor 1 Nuclear Receptor (SF1; NR5A1).; type: functional
[3] = StAR promoter reporter inhibition counter-screen, dose response, counter-screen for LRH-1 inverse agonist project, cell-based, luminescence, luciferase reporter (AID 651969); type: functional
[4] = target: T1, Delta-type opioid receptor (Homo sapiens, UniProt P41143); experiment: HTS Image-Based Screen for Antagonists of the DOR Receptor. [Related pubchem assays (depositor defined):AID1777, AID1785, AID1786, AID2133]; type: functional
T1 sequence (P41143 whole entry): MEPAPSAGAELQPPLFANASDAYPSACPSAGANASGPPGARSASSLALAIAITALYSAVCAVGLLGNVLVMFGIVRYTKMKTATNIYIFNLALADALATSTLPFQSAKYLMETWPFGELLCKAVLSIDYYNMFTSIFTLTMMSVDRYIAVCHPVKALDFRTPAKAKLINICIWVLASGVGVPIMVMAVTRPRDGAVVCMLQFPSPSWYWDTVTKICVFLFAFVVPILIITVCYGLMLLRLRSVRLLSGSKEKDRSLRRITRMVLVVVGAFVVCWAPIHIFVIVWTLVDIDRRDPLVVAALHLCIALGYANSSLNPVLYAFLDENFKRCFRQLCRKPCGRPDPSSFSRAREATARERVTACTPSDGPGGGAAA

[5] = target: T2, Short transient receptor potential channel 4 (Mus musculus, UniProt Q9QUQ5); experiment: mouse TRPC4 channel inhibitors, dose response, cell-based, HEK293 TRPC4/mu-opioid, Fluo-4 calcium (AID 434942); type: functional;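 also: potency of inhibitors blocking the TRPC4 calcium response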
T2 sequence (Q9QUQ5 whole entry): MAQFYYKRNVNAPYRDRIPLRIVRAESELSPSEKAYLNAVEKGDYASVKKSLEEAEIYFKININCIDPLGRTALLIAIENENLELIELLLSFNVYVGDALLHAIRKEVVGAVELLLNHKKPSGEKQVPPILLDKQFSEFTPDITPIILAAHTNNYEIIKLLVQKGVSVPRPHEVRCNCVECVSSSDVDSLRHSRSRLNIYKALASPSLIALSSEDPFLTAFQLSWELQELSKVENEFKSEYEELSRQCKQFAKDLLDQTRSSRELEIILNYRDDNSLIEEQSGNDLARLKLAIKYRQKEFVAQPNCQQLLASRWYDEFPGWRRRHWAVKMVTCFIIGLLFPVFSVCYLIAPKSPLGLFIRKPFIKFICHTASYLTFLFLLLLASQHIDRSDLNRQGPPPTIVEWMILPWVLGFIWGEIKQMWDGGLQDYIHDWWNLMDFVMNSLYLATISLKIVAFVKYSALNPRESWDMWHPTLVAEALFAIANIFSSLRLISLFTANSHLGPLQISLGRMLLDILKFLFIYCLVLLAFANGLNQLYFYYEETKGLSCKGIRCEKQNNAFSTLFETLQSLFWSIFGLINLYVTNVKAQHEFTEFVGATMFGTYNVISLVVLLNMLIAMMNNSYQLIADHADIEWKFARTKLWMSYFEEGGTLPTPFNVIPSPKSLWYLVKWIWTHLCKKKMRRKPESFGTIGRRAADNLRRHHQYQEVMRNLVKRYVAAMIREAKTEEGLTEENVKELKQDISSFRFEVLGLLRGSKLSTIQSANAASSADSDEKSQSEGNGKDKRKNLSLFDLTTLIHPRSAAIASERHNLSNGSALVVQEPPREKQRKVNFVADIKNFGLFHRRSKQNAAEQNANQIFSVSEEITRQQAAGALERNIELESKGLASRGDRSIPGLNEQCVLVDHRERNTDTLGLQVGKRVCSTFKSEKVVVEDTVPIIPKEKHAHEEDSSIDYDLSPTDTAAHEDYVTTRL

[6] = target: T3, Beta-galactosidase (Escherichia coli, UniProt Q8VNN2); experiment: beta-galactosidase enzyme inhibitors and activators, dose response, artefact control for CCR6 antagonist project, biochemical, E. coli enzyme, set 3 (AID 504712); type: functional
T3 sequence (Q8VNN2 whole entry): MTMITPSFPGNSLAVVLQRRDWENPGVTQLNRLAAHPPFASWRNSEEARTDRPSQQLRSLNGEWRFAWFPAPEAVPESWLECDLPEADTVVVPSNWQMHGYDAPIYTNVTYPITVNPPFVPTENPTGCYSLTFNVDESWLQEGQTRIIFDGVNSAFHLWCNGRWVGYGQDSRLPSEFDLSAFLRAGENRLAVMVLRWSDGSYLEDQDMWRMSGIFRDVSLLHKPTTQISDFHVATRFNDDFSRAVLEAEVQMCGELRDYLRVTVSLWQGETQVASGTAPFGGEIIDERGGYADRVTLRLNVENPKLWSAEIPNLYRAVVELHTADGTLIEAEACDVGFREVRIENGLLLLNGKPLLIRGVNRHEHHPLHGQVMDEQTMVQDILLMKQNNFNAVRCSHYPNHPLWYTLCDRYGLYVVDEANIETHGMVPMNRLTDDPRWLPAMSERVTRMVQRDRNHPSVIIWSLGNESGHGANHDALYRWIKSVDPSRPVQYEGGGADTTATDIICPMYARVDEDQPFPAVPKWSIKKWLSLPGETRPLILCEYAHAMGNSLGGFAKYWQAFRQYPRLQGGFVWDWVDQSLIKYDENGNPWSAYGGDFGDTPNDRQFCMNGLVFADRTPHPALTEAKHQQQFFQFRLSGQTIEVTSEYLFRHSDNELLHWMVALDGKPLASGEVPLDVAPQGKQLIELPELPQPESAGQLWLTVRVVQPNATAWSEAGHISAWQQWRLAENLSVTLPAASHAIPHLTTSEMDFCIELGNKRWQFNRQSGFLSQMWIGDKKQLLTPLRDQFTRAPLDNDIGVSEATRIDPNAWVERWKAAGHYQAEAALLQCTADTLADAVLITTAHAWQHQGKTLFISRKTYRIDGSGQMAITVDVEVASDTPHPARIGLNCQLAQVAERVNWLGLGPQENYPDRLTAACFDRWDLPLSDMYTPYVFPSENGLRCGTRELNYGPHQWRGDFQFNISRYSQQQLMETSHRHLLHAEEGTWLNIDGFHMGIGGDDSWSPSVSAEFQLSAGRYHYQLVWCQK

[7] = target: T4, Kappa-type opioid receptor (Homo sapiens, UniProt P41145); type: functional
T4 sequence (P41145 whole entry): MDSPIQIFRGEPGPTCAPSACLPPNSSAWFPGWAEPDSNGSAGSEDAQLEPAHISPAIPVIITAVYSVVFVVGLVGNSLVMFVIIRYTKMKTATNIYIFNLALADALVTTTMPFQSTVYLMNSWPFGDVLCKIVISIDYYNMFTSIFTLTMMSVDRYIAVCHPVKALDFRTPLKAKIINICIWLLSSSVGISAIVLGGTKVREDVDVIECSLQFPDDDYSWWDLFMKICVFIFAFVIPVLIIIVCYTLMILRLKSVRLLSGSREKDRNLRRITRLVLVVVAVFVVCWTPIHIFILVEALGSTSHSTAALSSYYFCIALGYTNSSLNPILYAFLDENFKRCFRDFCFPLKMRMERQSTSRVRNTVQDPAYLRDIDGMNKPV

[8] = target: T1, Delta-type opioid receptor; experiment: HTS Image-Based Screen for Agonists of the DOR Receptor. [Related pubchem assays (depositor defined):AID1777, AID1786, AID2133]; type: functional
[9] = nonselective inhibitors of cellular cAMP signaling, dose response, counter-screen for MC4R biased antagonist project, cell-based, TR-FRET cAMP detection (AID 602305); type: functional;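 also: U2OS cells stimulated with forskolin near its EC80 as the cAMP inducer; potency is for inhibition of forskolin-stimulated cAMP signaling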
[10] = target: Melanocortin receptor 4 (Homo sapiens, UniProt P32245); experiment: MC4R antagonist potency on cAMP, dose response, cell-based, TR-FRET, biased antagonists (AID 602298); type: functional;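 also: antagonist potency against agonist-stimulated cAMP production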
Sequence of Melanocortin receptor 4 (P32245 whole entry): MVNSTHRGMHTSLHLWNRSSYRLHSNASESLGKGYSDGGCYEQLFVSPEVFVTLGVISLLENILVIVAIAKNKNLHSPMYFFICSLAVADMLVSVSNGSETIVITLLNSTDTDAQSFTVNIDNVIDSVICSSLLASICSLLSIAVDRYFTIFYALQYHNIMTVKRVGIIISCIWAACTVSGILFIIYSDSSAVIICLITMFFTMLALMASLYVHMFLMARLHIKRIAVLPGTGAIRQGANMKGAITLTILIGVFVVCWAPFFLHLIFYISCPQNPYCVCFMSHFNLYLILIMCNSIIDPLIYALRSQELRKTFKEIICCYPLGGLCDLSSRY

[11] = inhibitors of intracellular T. cruzi replication, confirmation, NIH3T3 host cells, beta-gal luminescence (AID 2044); type: functional, cell-based;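 also: intracellular parasites grown in NIH/3T3 mouse fibroblasts as host cells; luminescent beta-galactosidase reporter signal from transgenic T. cruzi replicating inside host cells; inhibitors lower the luminescence signal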
[12] = target: Heat shock protein HSP 90-alpha (Homo sapiens, UniProt P07900); type: functional, organism-based
[13] = target: T3, Beta-galactosidase; type: functional
[14] = target: T4, Kappa-type opioid receptor; type: functional; remark: listed apart in the source
[15] = target: Glucose-6-phosphate 1-dehydrogenase (Homo sapiens, UniProt P11413); experiment: human G6PD enzyme inhibitors, dose response, selectivity assay for P. falciparum G6PD inhibitor project, biochemical, fluorescence (AID 504792); type: functional
Sequence of Glucose-6-phosphate 1-dehydrogenase (P11413 whole entry): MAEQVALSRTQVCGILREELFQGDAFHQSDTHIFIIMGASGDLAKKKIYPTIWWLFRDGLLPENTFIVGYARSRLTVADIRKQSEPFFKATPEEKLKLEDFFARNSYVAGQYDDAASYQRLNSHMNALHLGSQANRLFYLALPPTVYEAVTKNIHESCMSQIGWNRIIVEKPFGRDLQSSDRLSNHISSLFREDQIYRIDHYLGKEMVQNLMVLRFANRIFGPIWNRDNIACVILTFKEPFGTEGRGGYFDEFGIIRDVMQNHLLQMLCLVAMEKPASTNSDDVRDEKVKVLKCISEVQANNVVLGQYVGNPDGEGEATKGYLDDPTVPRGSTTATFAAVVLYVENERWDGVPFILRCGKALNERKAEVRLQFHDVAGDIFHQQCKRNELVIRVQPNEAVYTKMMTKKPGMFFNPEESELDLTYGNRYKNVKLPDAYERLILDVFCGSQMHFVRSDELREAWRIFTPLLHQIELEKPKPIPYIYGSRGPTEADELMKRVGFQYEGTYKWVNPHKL

[16] = cytotoxicity toward NIH3T3 fibroblasts, dose response, counter-screen, cell-based, ATP luminescence, mouse fibroblasts (AID 2010); type: functional;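 also: cells exposed to compound for about 90 hours before reading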
[17] = target: Mu-type opioid receptor (Homo sapiens, UniProt P35372); experiment: HTS Image-Based Screen for Agonists of the MOR Receptor. [Related pubchem assays (depositor defined):AID1777, AID1785, AID1786, AID2133]; type: functional;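 also: imaging of beta-arrestin GFP recruitment into spots after receptor activation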
Sequence of Mu-type opioid receptor (P35372 whole entry): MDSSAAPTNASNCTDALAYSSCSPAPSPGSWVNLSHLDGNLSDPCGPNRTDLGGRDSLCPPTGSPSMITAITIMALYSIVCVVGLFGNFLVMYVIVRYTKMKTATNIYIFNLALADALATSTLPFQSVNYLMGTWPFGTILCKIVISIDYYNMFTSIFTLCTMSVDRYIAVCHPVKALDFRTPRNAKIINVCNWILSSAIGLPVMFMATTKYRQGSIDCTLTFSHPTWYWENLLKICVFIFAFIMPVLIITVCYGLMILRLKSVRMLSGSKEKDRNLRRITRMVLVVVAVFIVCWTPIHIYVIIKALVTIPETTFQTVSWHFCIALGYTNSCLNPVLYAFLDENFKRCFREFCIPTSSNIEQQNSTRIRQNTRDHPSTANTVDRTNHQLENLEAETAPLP

[18] = target: T5, Microphthalmia-associated transcription factor (Homo sapiens, UniProt O75030); experiment: TRPM1 promoter luciferase signal decrease, dose response, MITF inhibitor project, cell-based, SK-MEL-5, cherry-picked, set 3 (AID 493073); type: functional
T5 sequence (O75030 whole entry): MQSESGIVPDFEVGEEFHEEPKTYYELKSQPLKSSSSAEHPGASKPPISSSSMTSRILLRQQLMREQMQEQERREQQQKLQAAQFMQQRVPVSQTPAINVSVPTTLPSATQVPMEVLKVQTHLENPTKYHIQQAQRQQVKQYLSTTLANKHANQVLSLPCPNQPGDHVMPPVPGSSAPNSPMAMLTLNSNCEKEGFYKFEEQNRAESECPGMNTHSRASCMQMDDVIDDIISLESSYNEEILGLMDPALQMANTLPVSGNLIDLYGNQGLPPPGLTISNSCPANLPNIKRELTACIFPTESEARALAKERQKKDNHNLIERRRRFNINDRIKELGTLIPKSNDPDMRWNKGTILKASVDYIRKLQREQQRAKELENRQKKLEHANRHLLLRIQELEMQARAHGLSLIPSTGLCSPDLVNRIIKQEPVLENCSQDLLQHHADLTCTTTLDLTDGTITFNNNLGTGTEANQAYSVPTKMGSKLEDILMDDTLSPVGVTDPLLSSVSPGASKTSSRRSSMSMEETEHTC

[19] = target: T6, Small ubiquitin-related modifier 1 (Homo sapiens, UniProt P63165); experiment: inhibitors of SUMO1 partner interactions, dose response, biochemical, FRET (AID 624383); type: functional; details: read-out: IC50_Mean
T6 sequence (P63165 whole entry): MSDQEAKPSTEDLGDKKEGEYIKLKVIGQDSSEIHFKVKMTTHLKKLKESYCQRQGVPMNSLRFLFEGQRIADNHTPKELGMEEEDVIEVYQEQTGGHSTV

[20] = target: T6, Small ubiquitin-related modifier 1; experiment: inhibitors of SUMO1 peptide binding, dose response, biochemical, fluorescence polarization, uHTS hits (AID 624382); type: functional; details: read-out: IC50_Mean
[21] = target: Cytochrome P450 2D6 (Homo sapiens, UniProt P10635);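 also: CYP2D6 member of a cytochrome P450 panel assay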
Sequence of Cytochrome P450 2D6 (P10635 whole entry): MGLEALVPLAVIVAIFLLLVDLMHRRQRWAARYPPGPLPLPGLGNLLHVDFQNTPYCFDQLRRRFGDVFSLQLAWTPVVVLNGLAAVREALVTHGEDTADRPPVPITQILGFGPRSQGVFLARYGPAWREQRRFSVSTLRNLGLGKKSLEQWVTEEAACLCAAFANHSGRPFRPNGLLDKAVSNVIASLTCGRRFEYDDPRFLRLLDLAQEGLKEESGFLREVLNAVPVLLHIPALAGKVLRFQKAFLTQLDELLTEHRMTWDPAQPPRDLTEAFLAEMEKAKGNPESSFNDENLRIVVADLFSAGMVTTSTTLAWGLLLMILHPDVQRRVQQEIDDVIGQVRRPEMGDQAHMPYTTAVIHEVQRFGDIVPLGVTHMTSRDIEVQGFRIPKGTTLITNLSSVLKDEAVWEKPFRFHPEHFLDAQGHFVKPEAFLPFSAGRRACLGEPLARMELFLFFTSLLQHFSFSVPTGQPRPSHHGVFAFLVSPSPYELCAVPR

[22] = target: Protein Wnt-3a (Mus musculus, UniProt P27467); experiment: Wnt3a-driven reporter signaling inhibition, dose response, selectivity assay for Gli-SUFU antagonist project, Wnt-LIGHT cells, luminescence (AID 651570); type: functional; details: read-out: IC50_Mean;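 also: Wnt-LIGHT reporter cells stimulated with conditioned medium from Wnt3a-producing cells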
Sequence of Protein Wnt-3a (P27467 whole entry): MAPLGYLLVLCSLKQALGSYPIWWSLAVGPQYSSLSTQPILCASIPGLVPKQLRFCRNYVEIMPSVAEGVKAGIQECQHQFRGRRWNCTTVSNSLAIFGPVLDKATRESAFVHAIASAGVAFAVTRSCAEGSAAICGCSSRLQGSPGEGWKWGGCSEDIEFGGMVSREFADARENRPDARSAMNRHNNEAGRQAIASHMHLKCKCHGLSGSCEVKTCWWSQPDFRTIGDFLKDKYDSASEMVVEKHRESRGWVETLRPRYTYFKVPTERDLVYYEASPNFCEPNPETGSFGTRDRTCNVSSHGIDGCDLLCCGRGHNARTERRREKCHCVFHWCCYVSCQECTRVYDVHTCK

[23] = target: Cytochrome P450 3A4 (Homo sapiens, UniProt P08684);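 also: CYP3A4 tested as one member of a cytochrome P450 panel screen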
[24] = target: Voltage-dependent T-type calcium channel subunit alpha-1H (Homo sapiens, UniProt O95180); type: functional;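 also: channel activity triggered by adding a high calcium stimulation buffer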
[25] = ARNT/TACC3 interaction disruptors, potency, confirmation, biochemical, AlphaScreen, cherry-picked samples (AID 651703); type: functional, Homo sapiens;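 also: His-tagged ARNT PAS-B domain paired with GST-TACC3 E629A dimer coactivator fragment; potency of inhibitors that break up the complex and lower AlphaScreen signal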
[26] = target: T7, Sentrin-specific protease 1 (Homo sapiens, UniProt Q9P0U3); experiment: Dose response confirmation of small molecule inhibitors of the catalytic domain of the SUMO protease, SENP1 in a FRET assay.; type: functional; details: read-out: IC50_Mean
T7 sequence (Q9P0U3 whole entry, the tested form may be a part): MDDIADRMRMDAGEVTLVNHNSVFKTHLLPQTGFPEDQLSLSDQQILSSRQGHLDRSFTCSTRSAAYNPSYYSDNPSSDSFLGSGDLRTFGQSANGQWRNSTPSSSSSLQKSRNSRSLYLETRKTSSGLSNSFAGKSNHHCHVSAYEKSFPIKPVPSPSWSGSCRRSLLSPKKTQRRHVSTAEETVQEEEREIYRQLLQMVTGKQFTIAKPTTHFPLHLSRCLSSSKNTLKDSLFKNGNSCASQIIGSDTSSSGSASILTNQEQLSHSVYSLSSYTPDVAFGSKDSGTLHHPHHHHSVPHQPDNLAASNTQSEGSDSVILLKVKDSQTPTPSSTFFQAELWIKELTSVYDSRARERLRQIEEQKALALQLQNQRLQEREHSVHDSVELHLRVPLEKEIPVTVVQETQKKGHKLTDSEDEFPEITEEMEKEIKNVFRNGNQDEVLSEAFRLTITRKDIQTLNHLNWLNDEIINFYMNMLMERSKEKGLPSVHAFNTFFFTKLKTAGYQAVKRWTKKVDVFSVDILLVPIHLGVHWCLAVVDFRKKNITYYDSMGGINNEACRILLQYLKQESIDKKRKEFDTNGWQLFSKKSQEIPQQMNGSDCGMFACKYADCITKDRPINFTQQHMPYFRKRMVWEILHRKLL

[27] = target: T7, Sentrin-specific protease 1; experiment: potency of human SENP1 inhibitors, dose response, biochemical, kinetic FRET (AID 651697); type: functional; details: read-out: IC50_Mean

Structure (SMILES): COc1cc(C(=O)Nc2ccccc2N2CCN(S(C)(=O)=O)CC2)cc(OC)c1OC
IC50 [1]: 14.6 µM (inactive)
IC50 [2]: 7.65 µM (active)
IC50 [3]: 35.9 µM (inactive)

Structure (SMILES): Cc1ccc(NC(=O)c2cc(N3C(=O)C=CC3=O)ccc2N2CCOCC2)cc1
IC50 [4]: > 32 µM (inactive)
EC50 [5]: 5.31 µM (active)
IC50 [6]: > 66.6 µM (inactive)
IC50 [7]: 8.25 µM (active)
EC50 [8]: > 32 µM (inactive)
IC50 [9]: 39 µM (inactive)
IC50 [10]: 11.9 µM (inactive)
EC50 [11]: 2.85 µM (active)
AC50 [12]: 591 nM (active)
EC50 [13]: > 31.5 µM (inactive)
IC50 [14]: 23.7 µM
IC50 [15]: 53 µM (inactive)
EC50 [16]: 6.01 µM (active)
EC50 [17]: > 32 µM (inactive)
AC50 [18]: 11.6 µM (active)

Structure (SMILES): CC(=O)c1sc(Nc2nc3cc4c(cc3s2)OCO4)nc1C
IC50 [19]: 11.1 µM (active)
IC50 [20]: > 66.6 µM (inactive)

Second part, led by results:

AC50 [21]: 11.2 µM (inconclusive)
IC50 [22]: 5.78 µM (active)
AC50 [23]: inconclusive
Structure (SMILES): FC(F)(F)c1ccc(N2CCN(c3cc(-c4ccccc4)nc4ncnn34)CC2)nc1

EC50 [24]: 5.07 µM (active)
Structure (SMILES): COc1ccc(C(c2nnnn2C2CCCC2)N2CCc3ccccc3C2)cc1OC (configuration not stated)
AC50 [25]: 132 µM (active)

IC50 [26]: 8.04 µM (active)
IC50 [27]: 8.83 µM (active)
Structure (SMILES): Cc1nc2nonc2c2nccc(O)c12
